Structures can show the parent of a compound that is named as a salt.
Experiments:
Parameters in all cases: species or system rat (male Charles River CD)
[1] = target: T1, D2-like dopamine receptors (Rattus norvegicus, UniProt P61169); assay: inhibition of tritiated (S)-sulpiride binding to D2-like dopamine receptors in rat striatal tissue; settings: rat striatum
T1 construct: Striatal tissue from the brains of male Charles River CD rats; from tissue; host or cells: rat striatum (male Charles River CD rats), membrane preparation
Method: Striatal tissue from the brains of male Charles River CD rats weighing between 140-250 g were homogenised in ice-cold 50 mM Tris-HCl buffer (pH 7.7 when measured at 25° C.) and centrifuged at 40,000 g for 10 minutes. The pellet was resuspended in Tris salts buffer (50 mM Tris-HCl buffer containing 120 mM NaCl, 5 mM KCl, 2 mM CaCl2 and 1 mM MgCl2 with the addition of 6 mM ascorbic acid; pH 7.7 when measured at 25° C.), and again centrifuged at 40,000 g for 10 minutes. The final pellet was stored at -80° C. Before each test the pellet was resuspended in Tris salts buffer (equivalent to 2 mg wet weight of tissue/ml). […]
(§1) The filters were washed with ice-cold Tris-HCl buffer and dried. The filters were punched out in to vials, scintillation fluid added and were left for about 20 hours before being counted by scintillation spectrophotometry. The percentage displacement of specific binding of the tritiated ligand was calculated for the single concentration (10^-6 M) of test compound. […] The inhibition coefficient Ki was then calculated using the formula [formula] in which [ligand] is the concentration of the tritiated ligand used and KD is the equilibrium dissociation constant for the ligand.

[2] = target: T2, 5-HT1A receptors (Rattus norvegicus, UniProt P19327); assay: inhibition of [3H]8-OH-DPAT binding to 5-HT1A receptors in rat hippocampal tissue; settings: rat hippocampus
T2 construct: Hippocampal tissue from the brains of male Charles River CD rats; from tissue; host or cells: rat hippocampus (male Charles River CD rats), membrane preparation
T2 sequence (P19327 1-422): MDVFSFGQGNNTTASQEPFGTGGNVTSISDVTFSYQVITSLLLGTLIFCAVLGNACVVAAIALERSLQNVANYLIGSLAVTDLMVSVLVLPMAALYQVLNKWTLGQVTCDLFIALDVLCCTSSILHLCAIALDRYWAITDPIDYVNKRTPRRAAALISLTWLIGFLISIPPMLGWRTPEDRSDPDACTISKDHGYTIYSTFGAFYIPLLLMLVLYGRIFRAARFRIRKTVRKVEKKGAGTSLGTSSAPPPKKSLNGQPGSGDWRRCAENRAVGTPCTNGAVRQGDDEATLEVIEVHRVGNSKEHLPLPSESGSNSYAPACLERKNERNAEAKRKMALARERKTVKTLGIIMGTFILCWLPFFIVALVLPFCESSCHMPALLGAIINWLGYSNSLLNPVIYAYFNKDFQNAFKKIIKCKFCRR
Method: Hippocampal tissue from the brains of male Charles River CD rats weighing between 150-250 g were homogenised in ice-cold 50 mM Tris-HCI buffer (pH 7.7) when measured at 25° C., 1:40 w/v) and centrifuged at 30,000 g at 4° C. for 10 minutes. The pellet was rehomogenised in the same buffer, incubated at 37° C. for 10 minutes and centrifuged at 30,000 g at 4° C. for 10 minutes. The final pellet was resuspended in 50 mM Tris-HCl buffer (pH 7.7) containing 4 mM CaCl2, 0.1% L-ascorbic acid and 10 μM pargyline hydrochloride (equivalent to 6.25 mg wet weight of tissue/ml) and used immediately in the binding assay. […]
as §1, with “into” for “in to”, “radioactivity determined” for “were left for about 20 hours before being counted”, “by liquid” for “by”, “counting.” for “spectrophotometry.”

[3] = system: α1-adrenoceptors; assay: inhibition of [7-methoxy-3H]prazosin binding to α1-adrenoceptors in rat whole cortical tissue; settings: rat cortex
Method: Whole cortical tissue from the brains of male Charles River CD rats weighing between 150-250 g were homogenised in ice-cold 50 mM Tris-HCl, pH 7.6 (at 25° C.; 1:40 w/v) and centrifuged at 1000 g at 4° C. for 10 minutes. The supernatant was centrifuged at 30,000 g at 4° C. for 10 minutes. The pellet was rehomogenised in 50 mM Tris-HCl, pH 7.6 (1:40 w/v) and centrifuged at 30,000 g at 4° C. for 10 minutes. The final pellet was resuspended in 50 mM Tris-HCl, pH 7.6 (equivalent to 12.5 mg wet weight of tissue/ml) and used immediately in the binding assay. […]
as §1, with “into” for “in to”, “radioactivity determined” for “were left for about 20 hours before being counted”, “by liquid” for “by”, “counting.” for “spectrophotometry.”

T1 sequence (P61169 whole entry): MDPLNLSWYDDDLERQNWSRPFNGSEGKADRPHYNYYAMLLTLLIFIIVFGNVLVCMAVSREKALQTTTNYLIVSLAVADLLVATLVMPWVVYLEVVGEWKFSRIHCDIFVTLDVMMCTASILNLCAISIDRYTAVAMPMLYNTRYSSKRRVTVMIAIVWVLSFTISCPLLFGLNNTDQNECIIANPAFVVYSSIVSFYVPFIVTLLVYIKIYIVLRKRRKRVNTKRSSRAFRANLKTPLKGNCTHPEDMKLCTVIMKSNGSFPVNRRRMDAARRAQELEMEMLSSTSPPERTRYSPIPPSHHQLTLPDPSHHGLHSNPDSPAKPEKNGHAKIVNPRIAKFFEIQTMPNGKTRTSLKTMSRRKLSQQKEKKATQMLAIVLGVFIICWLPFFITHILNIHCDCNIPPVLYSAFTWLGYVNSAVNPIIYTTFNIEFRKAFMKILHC

| inhibition at 1 µM ([1]; 10^-6 M, tritiated (S)-sulpiride, read-out: % displacement at 10^-6 M (D2-like)) | inhibition at 1 µM ([2]; 10^-6 M, [3H]8-OH-DPAT, read-out: % displacement at 10^-6 M (5-HT1A)) | % displacement at 10^-6 M (α1) ([3]; 10^-6 M, [7-methoxy-3H]prazosin, 30 min, 1 µM) | Ki ([1]; tritiated (S)-sulpiride 1 nM, 4° C., 40 minutes) | Ki ([2]; [3H]8-OH-DPAT 2 nM, 25° C., 30 minutes) | Ki ([3]; [7-methoxy-3H]prazosin 0.1 nM, 30° C., 30 minutes) | Structure (SMILES) |
| --- | --- | --- | --- | --- | --- | --- |
| 122% | 99% | 93% | – | – | – | O=C(NCC1CCN(C[C@H]2COc3ccc4[nH]ccc4c3O2)CC1)c1ccccn1 [Example 2, (S)-N-{[1-(2,3-dihydro-7H-1,4-dioxino[2,3-e]indol-2-ylmethyl)-4-piperidyl]methyl}pyridine-2-carboxamide 1.3 fumarate, 0.25 diethyl ether, 1.0 hydrate] |
| – | – | – | 7.6 nM | 3.1 nM | 12.4 nM | Nc1ncccc1C(=O)NCC1CCN(C[C@H]2COc3ccc4[nH]ccc4c3O2)CC1 [Example 1, (S)-2-amino-N-{[1-(2,3-dihydro-7H-1,4-dioxino[2,3-e]indol-2-ylmethyl)-4-piperidyl]methyl}pyridine-3-carboxamide] |

Source: patent publication US6107310A, “Heteroarylcarboxamide derivatives for treating CNS disorders” (Knoll Aktiengesellschaft, priority 1995, dated 2000)
